Experimental data taken from patent EP4624466A1, “DEGRADER FOR DECOMPOSING CMET PROTEIN, AND PHARMACEUTICAL COMPOSITION COMPRISING SAME” (Innocure Therapeutics, Inc., priority 2022, dated 2024).
Like-named read-outs stand apart in the source and are kept apart here.

Key:
SNU-638 = assay: Cell viability / antiproliferative assay (WST-8), SNU-638; assay type: cell-based, human; settings: read-out: SNU-638 IC50
Description: c-MET overexpressing human gastric cancer cell lines [MKN45] and [SNU638] were cultured in RPMI medium with 10% fetal bovine serum, penicillin (100U/ml), and streptomycin (100mg/ml), and c-MET exon 14 skipping mutant human gastric cancer cell lines [Hs746T] were cultured in DMEM media. The c-MET overexpressing human lung cancer cell line EBC-1 was cultured in MEM media with the addition of 10% fetal bovine serum, penicillin (100U/ml), and streptomycin (100mg/ml). […] The compound synthesized in accordance with the present invention was prepared with a raw material solution of 10 mM dissolved in DMSO (dimethyl sulfoxide), and was sequentially diluted and processed.
In order to observe the inhibitory activity on cell growth, cells were dispensed in a 96-well plate at a concentration of 5,000 cells/well, and then treated with the compound prepared at various concentrations for 72 hours. The viability of the cells was calculated using GraphicPad Prism 8.0 software by adding 10 ml per well of WST-8 (water soluble tetrazolium salt) sample, which reacts with dehydrogenase present in the electron transport system of mitochondria to produce formazon, incubated for 2 hours, and measured absorbance at 450 nm.

MKN-45 = assay: Cell viability / antiproliferative assay (WST-8), MKN-45; settings: read-out: MKN-45 IC50;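 further: MKN-45 is a human gastric cancer line overexpressing c-MET, growth inhibition read as WST-8 formazan absorbance at 450 nm after 2 h dye incubation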
c-MET = c-MET (Homo sapiens, UniProt P08581); assay: c-MET protein degradation (Simple Western), MKN-45; assay type: cell-based; design: assess the resolution of the compound of the present invention for c-MET expressed in cells; endogenous in cells; host or cells: MKN45 (human gastric cancer); settings: c-MET overexpressing gastric cancer cell line MKN-45, treated 24 hours
Sequence of c-MET (P08581 25-1390): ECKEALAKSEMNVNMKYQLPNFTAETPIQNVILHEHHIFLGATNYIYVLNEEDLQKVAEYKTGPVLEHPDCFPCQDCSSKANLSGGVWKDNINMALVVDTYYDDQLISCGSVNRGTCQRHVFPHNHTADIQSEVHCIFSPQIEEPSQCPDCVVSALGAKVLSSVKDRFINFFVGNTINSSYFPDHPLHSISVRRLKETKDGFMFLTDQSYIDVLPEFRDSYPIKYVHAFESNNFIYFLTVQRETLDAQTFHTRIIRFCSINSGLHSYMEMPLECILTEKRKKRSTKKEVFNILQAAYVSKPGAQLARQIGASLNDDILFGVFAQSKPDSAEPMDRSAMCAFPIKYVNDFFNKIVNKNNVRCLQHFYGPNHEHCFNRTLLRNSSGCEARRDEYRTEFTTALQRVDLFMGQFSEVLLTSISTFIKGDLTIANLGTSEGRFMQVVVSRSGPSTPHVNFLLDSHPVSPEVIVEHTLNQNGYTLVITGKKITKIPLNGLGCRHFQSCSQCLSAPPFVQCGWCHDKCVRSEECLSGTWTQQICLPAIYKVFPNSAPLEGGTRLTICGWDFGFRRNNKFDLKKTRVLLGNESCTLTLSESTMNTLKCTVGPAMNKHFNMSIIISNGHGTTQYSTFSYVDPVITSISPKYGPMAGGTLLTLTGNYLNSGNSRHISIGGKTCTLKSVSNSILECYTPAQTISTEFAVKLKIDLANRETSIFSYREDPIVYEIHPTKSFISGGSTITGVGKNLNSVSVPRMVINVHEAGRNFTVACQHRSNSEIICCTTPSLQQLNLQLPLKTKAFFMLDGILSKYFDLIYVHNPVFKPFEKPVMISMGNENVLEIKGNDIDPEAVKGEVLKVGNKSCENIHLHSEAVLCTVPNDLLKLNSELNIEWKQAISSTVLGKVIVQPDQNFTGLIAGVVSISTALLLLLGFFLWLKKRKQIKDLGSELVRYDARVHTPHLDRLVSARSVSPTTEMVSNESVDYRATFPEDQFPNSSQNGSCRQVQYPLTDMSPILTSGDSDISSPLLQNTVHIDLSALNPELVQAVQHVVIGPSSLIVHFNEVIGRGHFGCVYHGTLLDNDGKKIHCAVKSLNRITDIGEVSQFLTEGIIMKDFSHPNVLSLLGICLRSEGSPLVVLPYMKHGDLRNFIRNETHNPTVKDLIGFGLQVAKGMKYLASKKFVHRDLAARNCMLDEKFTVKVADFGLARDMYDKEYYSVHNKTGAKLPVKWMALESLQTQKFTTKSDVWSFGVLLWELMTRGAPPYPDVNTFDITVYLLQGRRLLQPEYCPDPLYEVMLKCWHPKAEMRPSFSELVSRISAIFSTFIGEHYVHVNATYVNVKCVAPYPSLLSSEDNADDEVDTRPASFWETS
Description: In order to assess the resolution of the compound of the present invention for c-MET expressed in cells, cells were dispensed in a 12-well plate at a concentration of 2 × 10^5 cells/well, and then gastric cancer cell lines were treated with samples for 24 hours and lung cancer cell lines were treated for 48 hours. Cell lysates were collected using a scraper on ice, centrifuged at 4°C15,000 rpm for 30 min to obtain a protein-containing supernatant. Protein expression was then measured using the Simple Western Automated Western Blot System Abby instrument using 3 µg of protein for each sample. SDS and heat-induced denaturation proteins were separated by molecular weight, attached to capillary, reacted with anti-c-MET or anti-GAPDH antibodies, which are primary antibodies, and then reacted with HRP-conjugated secondary antibodies, and analyzed the protein expression signal with compass software. Protein expression was normalized based on the expression value of GAPDH, and protein development in each sample was measured as a percentage (%) based on 100% of samples treated with 0.1% DMSO carriers, and DC50 (concentration of a compound where 50% protein inhibition is achieved) was calculated from the change in protein expression amount due to compound treatment.

[1] = SNU-638 cells, 72 hours, WST-8, Table 2
[2] = MKN-45 cells, 72 hours, WST-8, Table 1
[3] = MKN-45 cells, 72 hours, WST-8, Table 2

## Cc1cc2c(=O)n(C3CCC(=O)NC3=O)nc(C)c2cc1N1CCN(CC2CCN(CCN3CCC(COc4cnc(-c5cccc(Cn6nc(-c7cccc(C#N)c7)ccc6=O)c5)nc4)CC3)CC2)CC1 (stereo not drawn) [ICT-0001319]
SNU-638; [1]
  IC50: < 100 nM

## Cn1cc(-c2cnc3c(nnn3C[C@@H]3CN(c4ncc(-c5ccc(CN6CCN(C(=O)CCCCNc7ccc8c(=O)n(C9CCC(=O)NC9=O)ncc8c7)CC6)cc5)cn4)CCO3)n2)cn1 (stereo partly drawn) [ICT-0000924, 3-(6-((5-(4-(4-(2-((S)-2-((5-(1-methyl-1H-pyrazole-4-yl)-1H-[1,2,3]triazolo[4,5-b]pyrazine-1-yl)methyl)morpholino)pyrimidine-5-yl)benzyl)piperazine-1-yl)5-oxopentyl)amino)1-oxopthalazine-2(1H)-yl)piperidine-2,6-dione]
SNU-638; Homo sapiens, SNU-638, 72 h
  IC50: < 100 nM
MKN-45; Homo sapiens, MKN-45, 72 h
  IC50: < 100 nM
c-MET; Table 1
  DC50: < 100 nM

## Cn1cc(-c2cnc3c(nnn3C[C@@H]3CN(c4ncc(-c5ccc(CN6CCN(C(=O)CCCCCCNc7ccc8c(=O)n(C9CCC(=O)NC9=O)ncc8c7)CC6)cc5)cn4)CCO3)n2)cn1 (stereo partly drawn) [ICT-0000925, 3-(6-((7-(4-(4-(2-((S)-2-((5-(1-methyl-1H-pyrazole-4-yl)-1H-[1,2,3]triazolo[4,5-b]pyrazine-1-yl)methyl)morpholino)pyrimidine-5-yl)benzyl)piperazine-1-yl)7-oxoheptyl)amino)1-oxopthalazine-2(1H)-yl)piperidine-2,6-dione]
SNU-638; SNU-638 cells, 72 hours, WST-8, Table 1
  IC50: < 100 nM
MKN-45; [2]
  IC50: < 100 nM
c-MET; Table 1
  DC50: < 100 nM

## Cc1nn(C2CCC(=O)NC2=O)c(=O)c2ccc(N3CCN(C4CCN(CC(=O)N5CCC(COc6cnc(-c7cccc(Cn8nc(-c9cccc(C#N)c9)ccc8=O)c7)nc6)CC5)CC4)CC3)cc12 (stereo not drawn) [ICT-0001255]
SNU-638; Homo sapiens, SNU-638, 72 h
  IC50: < 100 nM
MKN-45; Homo sapiens, MKN-45, 72 h
  IC50: < 100 nM
c-MET; Table 2
  DC50: < 100 nM

## Cn1cc(-c2cnc3c(nnn3C[C@@H]3CN(c4ncc(-c5ccc(CN6CCN(C(=O)CCCNc7ccc8c(=O)n(C9CCC(=O)NC9=O)ncc8c7)CC6)cc5)cn4)CCO3)n2)cn1 (stereo partly drawn) [ICT-0000922, 3-{6-[(4-{4-[(4-{2-[(2S)-2-{[5-(1-methyl-1H-pyrazole-4-yl)-1H-[1,2,3]triazolo[4,5-b]pyrazine-1-yl]methyl}morpholine-4-il]pyrimidine-5-yl}phenyl)methyl]piperazine-1-yl}-4-oxobutyl)amino]-1-oxo-1,2-dihydroptalazine-2-yl}piperidine-2,6-dione]
SNU-638; Homo sapiens, SNU-638, 72 h
  IC50: < 100 nM
MKN-45; Homo sapiens, MKN-45, 72 h
  IC50: < 100 nM
c-MET; Table 1
  DC50: < 100 nM

## N#Cc1cccc(-c2ccc(=O)n(Cc3cccc(-c4ncc(OCC5CCN(CCCC#Cc6ccc7c(=O)n(C8CCC(=O)NC8=O)ncc7c6)CC5)cn4)c3)n2)c1 (stereo not drawn) [ICT-0001305]
SNU-638; [1]
  IC50: < 100 nM

## Cc1nn(C2CCC(=O)NC2=O)c(=O)c2cc(F)c(N3CCN(CC4CCN(CC(=O)N5CCC(COc6cnc(-c7cccc(Cn8nc(-c9cccc(C#N)c9)ccc8=O)c7)nc6)CC5)CC4)CC3)cc12 (stereo not drawn) [ICT-0001272]
MKN-45; Homo sapiens, MKN-45, 72 h
  IC50: < 100 nM
c-MET; Table 2
  DC50: < 100 nM

## N#Cc1cccc(-c2ccc(=O)n(Cc3cccc(-c4ncc(OCC5CCN(C(=O)COCCOCCOCCNc6ccc7c(=O)n(C8CCC(=O)NC8=O)ncc7c6)CC5)cn4)c3)n2)c1 (stereo not drawn) [ICT-0000987]
MKN-45; [3]
  IC50: < 100 nM
c-MET; Table 2
  DC50: 100 to 1000 nM

## Cc1nn(C2CCC(=O)NC2=O)c(=O)c2ccc(N3CCC(NC4CCN(CC(=O)N5CCC(COc6cnc(-c7cccc(Cn8nc(-c9cccc(C#N)c9)ccc8=O)c7)nc6)CC5)CC4)CC3)cc12 (stereo not drawn) [ICT-0001219]
MKN-45; Homo sapiens, MKN-45, 72 h
  IC50: < 100 nM
c-MET; Table 2
  DC50: < 100 nM

## N#Cc1cccc(-c2ccc(=O)n(Cc3cccc(-c4ncc(OCC5CCN(C(=O)CCN6CCN(c7ccc8c(=O)n(C9CCC(=O)NC9=O)ncc8c7)CC6)CC5)cn4)c3)n2)c1 (stereo not drawn) [ICT-0001199, 3-(1-{[3-(5-{[1-(3-{4-[2-(2,6-dioxopiperidin-3-yl)-1-oxo-1,2-dihydropthalazine-6-yl]piperazine-1-yl}propanoyl)piperidine-4-il]methoxy}pyrimidin-2-yl)phenyl]methyl}-6-oxo-1,6-dihydropyridazine-3-yl)benzonitrile]
MKN-45; Homo sapiens, MKN-45, 72 h
  IC50: < 100 nM
c-MET; Table 2
  DC50: < 100 nM

## 3-(6-(4-((1-(4-(1-(2-((S)-2-((5-(1-methyl-1H-pyrazole-4-yl)-1H-[1,2,3]triazolo[4,5-b]pyrazine-1-yl)methyl)morpholino)pyrimidine-5-il)benzyl)piperidine-4-il)methyl)piperazine-1-yl)piperazine-1-yl)1-oxopthalazine-2(1H)-yl)piperidine-2,6-dione [ICT-0000978]
MKN-45; [2]
  IC50: < 100 nM
c-MET; Table 1
  DC50: 100 to 1000 nM

## Cc1nn(C2CCC(=O)NC2=O)c(=O)c2cc(N3CCO[C@H](CN4CCN(CC(=O)N5CCC(COc6cnc(-c7cccc(Cn8nc(-c9cccc(C#N)c9)ccc8=O)c7)nc6)CC5)CC4)C3)ccc12 (stereo partly drawn) [ICT-0001271, 3-(1-(3-(5-((1-(2-(4-(((2R)-4-(3-(2,6-dioxopiperidin-3-yl)-1-methyl-4-oxo-3,4-dihydrophthalazine-6-yl)morpholine-2-il)methyl)piperazine-1-il)acetyl)piperidine-4-il)methoxy)pyrimidine-2-yl)benzyl)6-oxo-1,6-dihydropyridazine-3-yl)benzonitrile]
MKN-45; [3]
  IC50: < 100 nM
c-MET; Table 2
  DC50: < 100 nM

## Cc1nn(C2CCC(=O)NC2=O)c(=O)c2cc(N3CCC(CN4CCN(CC(=O)N5CCC(COc6cnc(-c7cccc(Cn8nc(-c9cccc(C#N)c9)ccc8=O)c7)nc6)CC5)CC4)CC3)ccc12 (stereo not drawn) [ICT-0001239]
MKN-45; Homo sapiens, MKN-45, 72 h
  IC50: < 100 nM
c-MET; Table 2
  DC50: < 100 nM

## Cc1nn(C2CCC(=O)NC2=O)c(=O)c2ccc(N3CCN(CC4CN(C(=O)CN5CCC(COc6cnc(-c7cccc(Cn8nc(-c9cccc(C#N)c9)ccc8=O)c7)nc6)CC5)C4)CC3)cc12 (stereo not drawn) [ICT-0001235]
MKN-45; Homo sapiens, MKN-45, 72 h
  IC50: < 100 nM
c-MET; Table 2
  DC50: < 100 nM

## Cc1nn(C2CCC(=O)NC2=O)c(=O)c2ccc(N3CCN(C[C@@H]4CN(CCN5CCC(COc6cnc(-c7cccc(Cn8nc(-c9cccc(C#N)c9)ccc8=O)c7)nc6)CC5)CCO4)CC3)cc12 (stereo partly drawn) [ICT-0001315]
SNU-638; [1]
  IC50: < 100 nM

## Cc1nn(C2CCC(=O)NC2=O)c(=O)c2ccc(N3CCN(CCCCC(=O)N4CCC(COc5cnc(-c6cccc(Cn7nc(-c8cccc(C#N)c8)ccc7=O)c6)nc5)CC4)CC3)cc12 (stereo not drawn) [ICT-0001176]
MKN-45; Homo sapiens, MKN-45, 72 h
  IC50: < 100 nM
c-MET; Table 2
  DC50: < 100 nM

## Cn1cc(-c2cnc3c(nnn3C[C@@H]3CN(c4ncc(-c5ccc(CN6CCN(C(=O)CCCCCNc7ccc8c(=O)n(C9CCC(=O)NC9=O)ncc8c7)CC6)cc5)cn4)CCO3)n2)cn1 (stereo partly drawn) [ICT-0000923, 3-{6-[(6-{4-[(4-{2-[(2S)-2-{[5-(1-methyl-1H-pyrazole-4-yl)-1H-[1,2,3]triazolo[4,5-b]pyrazine-1-yl]methyl}morpholine-4-day]pyrimidine-5-yl}phenyl)methyl]piperazine-1-yl}-6-oxohexyl)amino]-1-oxo-1,2-dihydrophthalazine-2-yl}piperidine-2,6-dione]
SNU-638; Homo sapiens, SNU-638, 72 h
  IC50: < 100 nM
MKN-45; Homo sapiens, MKN-45, 72 h
  IC50: < 100 nM
c-MET; Table 1
  DC50: < 100 nM

## Cc1nn(C2CCC(=O)NC2=O)c(=O)c2ccc(N3CCC(CN4CCN(CC(=O)N5CCC(COc6cnc(-c7cccc(Cn8nc(-c9cccc(C#N)c9)ccc8=O)c7)nc6)CC5)CC4)CC3)cc12 (stereo not drawn) [ICT-0001213]
MKN-45; Homo sapiens, MKN-45, 72 h
  IC50: < 100 nM
c-MET; Table 2
  DC50: < 100 nM

## Cc1nn(C2CCC(=O)NC2=O)c(=O)c2cc(N3CCC(CN4CCN(C(=O)CN5CCC(COc6cnc(-c7cccc(Cn8nc(-c9cccc(C#N)c9)ccc8=O)c7)nc6)CC5)CC4)CC3)ccc12 (stereo not drawn) [ICT-0001234]
MKN-45; Homo sapiens, MKN-45, 72 h
  IC50: < 100 nM
c-MET; Table 2
  DC50: > 1000 nM

## Cc1nn(C2CCC(=O)NC2=O)c(=O)c2cc(N3CCC(N4CCN(CC(=O)N5CCC(COc6cnc(-c7cccc(Cn8nc(-c9cccc(C#N)c9)ccc8=O)c7)nc6)CC5)CC4)CC3)ccc12 (stereo not drawn) [ICT-0001270]
MKN-45; Homo sapiens, MKN-45, 72 h
  IC50: < 100 nM
c-MET; Table 2
  DC50: < 100 nM

## Cn1cc(-c2cnc3c(nnn3C[C@@H]3CN(c4ncc(-c5ccc(CN6CCN(C(=O)CCCNc7cccc8cnn(C9CCC(=O)NC9=O)c(=O)c78)CC6)cc5)cn4)CCO3)n2)cn1 (stereo partly drawn) [ICT-0000969]
MKN-45; Homo sapiens, MKN-45, 72 h
  IC50: < 100 nM
c-MET; Table 1
  DC50: < 100 nM

## N#Cc1cccc(-c2ccc(=O)n(Cc3cccc(-c4ncc(OCC5CCN(CC(=O)N6CCN(c7ccc8c(=O)n(C9CCC(=O)NC9=O)ncc8c7)CC6)CC5)cn4)c3)n2)c1 (stereo not drawn) [ICT-0001221]
MKN-45; Homo sapiens, MKN-45, 72 h
  IC50: < 100 nM
c-MET; Table 2
  DC50: < 100 nM

## Cc1nn(C2CCC(=O)NC2=O)c(=O)c2cc(N3CCN(CC(=O)N4CCC(COc5cnc(-c6cccc(Cn7nc(-c8cccc(C#N)c8)ccc7=O)c6)nc5)CC4)CC3)ccc12 (stereo not drawn) [ICT-0001214, 3-(1-(3-(5-((1-(2-(4-(3-(2,6-dioxopiperidin-3-yl)-1-methyl-4-oxo-3,4-dihydropetalazine-6-yl)piperazine-1-il)acetyl)piperidine-4-il)methoxy)pyrimidine-2-yl)benzyl)6-oxo-1,6-dihydropyridazine-3-yl)benzonitrile]
MKN-45; [3]
  IC50: < 100 nM
c-MET; Table 2
  DC50: < 100 nM
